# Read-outs that look alike come from different tables or passages of the source.
# System: Target C
# Assay: RT-qPCR splicing assay, gene panel, Target C canonical junction (CJ) mRNA
# Type: cell-based
# Conditions: Homo sapiens, read-out: Target C CJ IC50
# In short: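 A673 (DMEM/10% FBS) or K562 (IMDM/10% FBS) cells were treated 24 h at 37 °C with an 11-point 3-fold dilution series, top final 10 uM, DMSO ≤0.25%. Lysates underwent one-step RT-qPCR for the canonical-junction isoform with GAPDH, GUSB or PPIA as housekeeper. ΔΔCt versus DMSO was converted to RQ (2^−ΔΔCt), then to percent response.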
# [1] = decrease in CJ mRNA levels, larger panel of genes, Table 3
SMILES,IC50 [1],IC50
"Cc1cn2cc(-c3cc(F)c4nn(C5CCNCC5)cc4c3)cc(F)c2n1 [Compound 129, 7-fluoro-5-(8-fluoro-2-methylimidazo[1,2-a]pyridin-6-yl)-2-(piperidin-4-yl)-2H-indazole]",0.1 to 1 µM,–
"Cc1cn2nc(-n3cc4cc(C5CCNCC5)cc(F)c4n3)cc(C)c2n1 [Compound 120, 6-[7-fluoro-5-(4-piperidyl)indazol-2-yl]-2,8-dimethyl-imidazo[1,2-b]pyridazine]",> 10 µM,–
"Cc1nc2c(C)cc(-c3cc(F)c4nn(C5CCNCC5)cc4c3)cc2o1 [Compound 137, 6-[7-fluoro-2-(4-piperidyl)indazol-5-yl]-2,4-dimethyl-1,3-benzoxazole]",0.1 to 1 µM,–
"Cc1cc(-n2cc3cc(N4CCNCC4)cc(F)c3n2)cc2cn(C)nc12 [Compound 117, 2-(2,7-dimethylindazol-5-yl)-7-fluoro-5-piperazin-1-yl-indazole]",> 10 µM,–
"Cn1cc2cc(-c3cc(F)c4nn(C5CCNCC5)cc4c3)cc(C#N)c2n1 [Compound 130, 5-[7-fluoro-2-(4-piperidyl)indazol-5-yl]-2-methyl-indazole-7-carbonitrile]",0.1 to 1 µM,–
"Cc1cn2nc(-c3cc(F)c4nn(C5CCNCC5)cc4c3)cc2c(C)n1 [Compound 124, 2-[7-fluoro-2-(4-piperidyl)indazol-5-yl]-4,6-dimethyl-pyrazolo[1,5-a]pyrazine]",0.1 to 1 µM,–
"Cc1cn2cc(-c3cc(F)c4nn(C5CCNCC5)cc4c3)nc(C)c2n1 [Compound 132, 6-[7-fluoro-2-(4-piperidyl)indazol-5-yl]-2,8-dimethyl-imidazo[1,2-a]pyrazine]",1 to 10 µM,–
"Cc1cn2nc(-c3cc(F)c4nn(C5CCN(C6CCC6)CC5)cc4c3)cc(C)c2n1 [Compound 151, 6-[2-(1-cyclobutyl-4-piperidyl)-7-fluoro-indazol-5-yl]-2,8-dimethyl-imidazo [1,2-b] pyridazine]",–,< 0.1 µM
"Cc1cn2nc(-c3ccc4nn(C5CCNCC5)cc4n3)cc(C)c2n1 [Compound 138, 2,8-dimethyl-6-[2-(4-piperidyl)pyrazolo[4,3-b]pyridin-5-yl]imidazo[1,2-b]pyridazine]",0.1 to 1 µM,–
"Cn1cc2cc(-c3ccc4nn(C5CCNCC5)cc4n3)c(O)cc2n1 [Compound 110, 2-methyl-5-[2-(4-piperidyl)pyrazolo[4,3-b]pyridin-5-yl]indazol-6-ol]",1 to 10 µM,–
"Cc1cc(-n2cc3cc(N4CCNCC4)ccc3n2)cc2cn(C)nc12 [Compound 121, 2,7-dimethyl-5-(5-piperazin-1-ylindazol-2-yl)indazole]",> 10 µM,–
"Cc1c(O)c(-c2ccc3nn(C4CCNCC4)nc3n2)cc2cn(C)nc12 [Compound 113, 2,7-dimethyl-5-[2-(4-piperidyl)triazolo[4,5-b]pyridin-5-yl]indazol-6-ol]",> 10 µM,–
"Cn1cc2cc(-c3cc(F)c4nn(C5CCNC6(CC6)C5)cc4c3)cc(F)c2n1 (stereo not drawn) [Compound 108, 2-(4-azaspiro[2.5]octan-7-yl)-7-fluoro-5-(7-fluoro-2-methyl-indazol-5-yl)indazole]",1 to 10 µM,–
"Cc1cc(-c2cc(F)c3nn(C4CCNCC4)cc3c2)cc2cn(C)nc12 [Compound 133, 5-(2,7-dimethylindazol-5-yl)-7-fluoro-2-(4-piperidyl)indazole]",0.1 to 1 µM,–
"Cc1c(O)c(-c2ccc3nn(C4CCNCC4)cc3n2)cc2cn(C)nc12 [Compound 109, 2,7-dimethyl-5-[2-(4-piperidyl)pyrazolo[4,3-b]pyridin-5-yl]indazol-6-ol]",0.1 to 1 µM,–
"Cn1cc2cc(-c3cc(F)c4nn(C5CCNCC5)nc4c3)cc(F)c2n1 [Compound 103, 4-fluoro-6-(7-fluoro-2-methyl-indazol-5-yl)-2-(4-piperidyl) benzotriazole]",1 to 10 µM,–
"Cc1nc2c(F)cc(-c3cc(F)c4nn(C5CCNCC5)cc4c3)cc2o1 [Compound 136, 4-fluoro-6-[7-fluoro-2-(4-piperidyl)indazol-5-yl]-2-methyl-1,3-benzoxazole]",0.1 to 1 µM,–

# Further lines, with some results ahead:
IC50 [1],SMILES,IC50
< 0.1 µM,"Cc1cn2nc(-c3cc(F)c4nn(C5CCN(CC6CC6)CC5)cc4c3)cc(C)c2n1 [Compound 149, 6-[2-[1-(cyclopropylmethyl)-4-piperidyl]-7-fluoro-indazol-5-yl]-2,8-dimethyl-imidazo[1,2-b]pyridazine]",–
> 10 µM,"Cc1ccc2cc(-c3cc(F)c4nn(C5CCNCC5)cc4c3)ccc2n1 [Compound 163, 6-[7-fluoro-2-(4-piperidyl)indazol-5-yl]-2-methyl-quinoline]",–
> 10 µM,"Cc1cn2nc(-c3cc4cn(C5CCNCC5)nc4c(OCc4ccccc4)n3)cc(C)c2n1 [Compound 153, 6-[7-benzyloxy-2-(4-piperidyl)pyrazolo [3,4-c]pyridin-5-yl]-2,8-dimethyl-imidazo[1,2-b]pyridazine]",–
0.1 to 1 µM,"Cc1cn2nc(-c3cc(F)c4nn([C@H]5CCNC[C@@H]5F)cc4c3)cc(C)c2n1 [Compound 167, 6-(7-fluoro-2-((3S,4S)-3-fluoropiperidin-4-yl)-2H-indazol-5-yl)-2,8-dimethylimidazo[1,2-b]pyridazine]",–
> 10 µM,"Fc1cc(-c2ccc3ncccc3c2)cc2cn(C3CCNCC3)nc12 [Compound 162, 6-[7-fluoro-2-(4-piperidyl)indazol-5-yl]quinoline]",–
0.1 to 1 µM,"CCN1CCC(n2cc3cc(-c4cc(C)c5nc(C)cn5n4)cc(F)c3n2)CC1 [Compound 146, 6-[2-(1-ethyl-4-piperidyl)-7-fluoro-indazol-5-yl]-2,8-dimethyl-imidazo[1,2-b]pyridazine]",–
0.1 to 1 µM,Cc1cn2nc(-c3cc(F)c4nn(C5CCN(CCF)CC5)cc4c3)cc(C)c2n1 [Compound 152],–
0.1 to 1 µM,"Cc1cn2nc(-c3ccc4nn(C5CCNCC5)cc4c3)cc(C)c2n1 [Compound 192, 2,8-dimethyl-6-[2-(4-piperidyl)indazol-5-yl]imidazo[1,2-b]pyridazine]",–
0.1 to 1 µM,"Cc1cn2nc(-c3cc4cn(C5CCNCC5)nc4c(O)n3)cc(C)c2n1 [Compound 139, 5-(2,8-dimethylimidazo[1,2-b]pyridazin-6-yl)-2-(4-piperidyl)-6H-pyrazolo[3,4-c]pyridin-7-one]",–
0.1 to 1 µM,Cc1cn2nc(-c3cc(F)c4nn([C@@H]5CCNC6(CC6)C5)cc4c3)cc(C)c2n1 [Compound 173],–
1 to 10 µM,"Fc1cc(-c2ccc3cnccc3c2)cc2cn(C3CCNCC3)nc12 [Compound 161, 6-[7-fluoro-2-(4-piperidyl)indazol-5-yl]isoquinoline]",–
< 0.1 µM,Cc1cn2nc(-c3cc(F)c4nn([C@H]5CCNC6(CC6)C5)cc4c3)cc(C)c2n1 [Compound 172],–
0.1 to 1 µM,"Cc1cn2nc(-c3cc(F)c4nn(C5CCNC6(CCC6)C5)cc4c3)cc(C)c2n1 (stereo not drawn) [Compound 189, 6-[2-(5-azaspiro[3.5]nonan-8-yl)-7-fluoro-indazol-5-yl]-2,8-dimethyl-imidazo[1,2-b]pyridazine]",–
> 10 µM,Cn1cc2cc(-c3cc(Cl)c4nn(C5CCNCC5)cc4n3)c(O)cc2n1 [Compound 141],–
> 10 µM,"COc1cc2nn(C3CCNCC3)cc2cc1-c1cc(C)c2nc(C)cn2n1 [Compound 159, 6-(6-methoxy-2-(piperidin-4-yl)-2H-indazol-5-yl)-2,8-dimethylimidazo[1,2-b]pyridazine]",–
0.1 to 1 µM,"Cc1cn2nc(-c3cc4cn(C5CCNCC5)nc4cn3)cc(C)c2n1 [Compound 147, 2,8-dimethyl-6-[2-(4-piperidyl)pyrazolo[3,4-c]pyridin-5-yl]imidazo[1,2-b]pyridazine]",–
0.1 to 1 µM,"Cc1cn2nc(-c3cc(F)c4nn(C5CCN(C)CC5)cc4c3)cc(C)c2n1 [Compound 150, 6-[7-fluoro-2-(1-methyl-4-piperidyl)indazol-5-yl]-2,8-dimethyl-imidazo[1,2-b]pyridazine]",–
1 to 10 µM,"Cc1cn2nc(-c3cc(O)c4nn(C5CCNCC5)cc4c3)cc(C)c2n1 [Compound 156, 5-(2,8-dimethylimidazo[1,2-b]pyridazin-6-yl)-2-(piperidin-4-yl)-2H-indazol-7-ol]",–
> 10 µM,COC1=C(C)C2N=C(C)OC2C=C1c1cc(F)c2nn(C3CCNCC3)cc2n1 (stereo not drawn) [Compound 144],–
